# In paper PMC8991960, “A Bivalent Activatable Fluorescent Probe for Screening and Intravital Imaging of Chemotherapy‐Induced Cancer Cell Death” (Angewandte Chemie (International Ed. in English), 2021):
# Tests used:
# [1] = tested on: breast cancer cells (MMTV-PyMT, MDA-MB231, MCF7); test: Dose-dependency study with Apotracker Red and CellTrace Violet; format: cell-based, mouse and human; conditions: 1 to 100 µM, 48 h, Apotracker Red 150 nM; 3 independent experiments
# Procedure: First, all drugs were tested in the 8 different cell lines to determine the percentages of Apotracker Red‐stained apoptotic cells compared to no treatment (Figure 3 c; Figure S8). […] From this screen, we decided to select 5 drugs with potent pro‐apoptotic response in breast cancer, the most diagnosed cancer worldwide.[25] […] From group 2, we selected cyclophosphamide, tamoxifen, and 5‐fluorouracil as pro‐apoptotic molecules. […] All 5 drugs were tested at multiple concentrations (from 1 to 100 μM) and with incubation times up to 48 h to examine whether drugs could block cell proliferation at late stages (Figures S9–S13).
# Figure 4 Apotracker Red detects dose‐dependent chemotherapeutic‐induced apoptosis in mouse and human breast cancer cell lines. Cells were plated with 1 μM CV, treated with increasing concentrations (0, 1, 3, 10, 30 and 100 μM) of selected drugs for 48 h, and stained with Apotracker Red (150 nM) before data acquisition. Drugs: tamoxifen (beige), cisplatin (black), 5‐fluorouracil (green), gemcitabine (pink) and cyclophosphamide (red). Data presented as mean±SEM of 3 independent experiments.
# Figure S9. Flow cytometry analysis of cisplatin in different breast cancer cell lines.
# Representative flow cytometric plots (from three independent experiments) of MMTV-PyMT cells (a), MDA-MB231 cells (b) and MCF7 cells (c) after treatment with increasing concentrations of cisplatin for 48 h. Cells were stained on day 0 with CellTraceTM Violet (1 µ M) and with Apotracker Red (150 nM) before data acquisition.
# (1 picture or pasted object on this page, not shown here)
# Edinburgh. Human peripheral blood neutrophils were isolated as previously described.[3] […]
# were centrifuged (300 g, 5 min, r.t.), washed once with PBS before addition of 0.05% Trypsin, 0.02% ethylenediaminetetraacetic acid (EDTA) in Hank’s balanced salt solution (HBSS) and incubation at 37°C for 5 min. […] Histograms and mean fluorescence intensities of […]
# 8 cancer cell lines = test: Classification of drugs by Apotracker Red (apoptosis) and CellTrace Violet (proliferation) staining; format: cell-based; conditions: 24 h treatment; for Drug group by Apotracker Red (apoptosis) and CV (proliferation) staining: 8 cell lines, single-dose screen; for Effect on cell proliferation (CellTrace Violet): CellTrace Violet 1 µM, Figure S8
# Procedure: To corroborate the versatility of Apotracker Red, we built a screening platform including a total of 8 cancer cell lines of variable origin and pathogenesis: breast (MCF7, MDA‐MB231 and MMTV‐PyMT (mouse mammary tumour virus‐polyoma middle tumour‐antigen)[23]), lung (A549), prostate (PC3 and LnCap), blood cells (Jurkat) and colon (HT29). All cell lines were cultured under standard conditions and seeded with the fluorescent proliferation marker CellTrace^TM Violet (CV) in 96‐well plates (10–20×10^3 cells/well) for high‐throughput flow cytometry. After drug treatment (i.e., drug addition plus 24 h incubation), Apotracker Red was incubated for 10 min and fluorescence readings were directly acquired without any additional processing steps (Figure 3 a). […] Using this platform, we tested a collection of FDA‐approved drugs in all cancer cell lines and compared their ability to induce apoptosis using Apotracker Red as the reporter. Specifically, we included DNA alkylation agents (e.g., cyclophosphamide, cisplatin, 5‐fluorouracil, gemcitabine, temozolomide), proteasomal and mitotic inhibitors (e.g., bortezomib, docetaxel, paclitaxel) and antagonists of specific proteins (e.g., dexamethasone, tamoxifen; Figure 3 b).
# (§1) First, all drugs were tested in the 8 different cell lines to determine the percentages of Apotracker Red‐stained apoptotic cells compared to no treatment (Figure 3 c; Figure S8). […] All 5 drugs were tested at multiple concentrations (from 1 to 100 μM) and with incubation times up to 48 h to examine whether drugs could block cell proliferation at late stages (Figures S9–S13).
# Figure S8. Heatmap of relative inhibition of cell proliferation (as indicated by staining of CellTraceTM Violet) after treatment of cancer cell lines with different drugs. Data presented as an average of 3 independent experiments. Cells were stained on day 0 with CellTraceTM Violet (1 µM) and mean fluorescence intensities were determined on the 5L LSR after 24 h of treatment with the different drugs.
# (1 picture or pasted object on this page, not shown here) […]
# (§2) Cell culture. MCF-7, A549, LnCap, MDA-MB-231, Jurkat T cells and PC3 cells were obtained from American Type Culture Collection (ATCC). HT29 cells were purchased from Merck (S i g m a Aldrich, UK). Mouse Mammary Tumour Virus –Polyoma Middle T antigen (MMTV -PyMT) cells were provided by the lab of Mikala Egeblad (CSHL, US). MMTV-PyMT, MCF-7, LnCap, MDA-MB-231 and Jurkat T cells were cultured in Roswell Park Memorial Institute (RPMI) 1640 Medium supplemented with 10% fetal bovine serum (FBS) , 100 U mL-1 penicillin and 0.1 mg mL-1 streptomycin. A549 and PC3 cells were cultured in Dublecco’s modified Eagle’s medium (DMEM) supplemented with 10% fetal bovine serum (FBS), 100 U mL-1 penicillin and 0.1 mg […]
# (§3) Flow cytometry drug screen.
# MDA-MB-231 cells = test: Dose-dependency study with Apotracker Red; format: cell-based, human; conditions: 1 to 100 µM, 48 h, Apotracker Red 150 nM
# Procedure: as §1
# Edinburgh. Human peripheral blood neutrophils were isolated as previously described.[3] Briefly, whole blood was drawn into tubes containing anti -coagulant 3.6% sodium citrate (final concentration: 0.4% (w/v)) and centrifuged at 350 g for 20 min at r.t. with lowest acceleration and no brake. Platelet-rich plasma was rem oved, and leukocytes separated from erythrocytes by 0.6% dextran sedimentation in saline for 30 min at r.t. The upper layer was further fractionated using an isotonic discontinuous Percoll density gradient. Neutrophils were harvested from the 63% and 72.9% interface and cultured in Iscove’s Modified Dulbecco’s Medium (IMDM, Gibco) in 5% h um an A B se rum fo r 1 8 h at 37°C, 5% CO2 to in du ce spontaneous […]
# as §2, §3
# [2] = tested on: apoptotic cells (primary human neutrophils, Jurkat T cells); test: Divalent cation-independent staining of apoptotic cells; format: cell-based; conditions: 2.5 mM EDTA; Apotracker Red 150 nM, Annexin V-AF647 25 nM
Molecule,Drug group by Apotracker Red (apoptosis) and CV (proliferation) staining (8 cancer cell lines),"Apotracker Red staining in MDA-MB-231 cells, dose-dependency study (MDA-MB-231 cells)",further results
CC/C(=C(\c1ccccc1)c1ccc(OCCN(C)C)cc1)c1ccccc1 [tamoxifen],induced apoptosis with little reduction of cell proliferation,–,"Percentages of Apotracker Red staining, dose-dependency study [1]: highest percentages of Apotracker Red staining across all breast cancer cells"
CC(=O)O[C@H]1C(=O)[C@@]2(C)[C@H]([C@H](OC(=O)c3ccccc3)[C@]3(O)C[C@H](OC(=O)[C@H](O)[C@@H](NC(=O)c4ccccc4)c4ccccc4)C(C)=C1C3(C)C)[C@]1(OC(C)=O)CO[C@@H]1C[C@@H]2O [paclitaxel],induced apoptosis with little reduction of cell proliferation,–,Effect on cell proliferation (CellTrace Violet) (8 cancer cell lines): very minor effects on cell proliferation
O=P1(N(CCCl)CCCl)NCCCO1 (stereo not drawn) [cyclophosphamide],–,weaker Apotracker Red‐staining,–
CC(=O)O[C@@]12CO[C@@H]1C[C@H](O)[C@@]1(C)C(=O)[C@H](O)C3=C(C)[C@@H](OC(=O)[C@H](O)[C@@H](NC(=O)OC(C)(C)C)c4ccccc4)C[C@@](O)([C@@H](OC(=O)c4ccccc4)[C@H]21)C3(C)C [docetaxel],inhibited cell proliferation but showed little or no induction of apoptosis,–,–
O=c1[nH]cc(F)c(=O)[nH]1 [5-fluorouracil],induced apoptosis with little reduction of cell proliferation,weaker Apotracker Red‐staining,–
CC(C)C[C@H](NC(=O)[C@H](Cc1ccccc1)NC(=O)c1cnccn1)B(O)O [bortezomib],induced apoptosis with little reduction of cell proliferation,–,Effect on cell proliferation (CellTrace Violet) (8 cancer cell lines): very minor effects on cell proliferation
Nc1ccn([C@@H]2O[C@H](CO)[C@@H](O)C2(F)F)c(=O)n1 [gemcitabine],induced apoptosis and decreased cell proliferation,weaker Apotracker Red‐staining,–
Cn1nnc2c(C(N)=O)ncn2c1=O [temozolomide],inhibited cell proliferation but showed little or no induction of apoptosis,–,–
C[C@@H]1C[C@H]2[C@@H]3CCC4=CC(=O)C=C[C@]4(C)[C@@]3(F)[C@@H](O)C[C@]2(C)[C@@]1(O)C(=O)CO [dexamethasone],had no impact on proliferation or apoptosis,–,–
"Annexin V‐AF647: a 36 kDa protein marker of PtdSer in the presence of Ca2+ ions (protein, UniProt P08758 2-320, looked up, Alexa Fluor 647 label, a 36 kDa protein marker of PtdSer in the presence of Ca2+ ions) Annexin A5: AQVLRGTVTDFPGFDERADAETLRKAMKGLGTDEESILTLLTSRSNAQRQEISAAFKTLFGRDLLDDLKSELTGKFEKLIVALMKPSRLYDAYELKHALKGAGTNEKVLTEIIASRTPEELRAIKQVYEEEYGSSLEDDVVGDTSGYYQRMLVVLLQANRDPDAGIDEAQVEQDAQALFQAGELKWGTDEEKFITIFGTRSVSHLRKVFDKYMTISGFQIEETIDRETSGNLEQLLLAVVKSIRSIPAYLAETLYYAMKGAGTDDHTLIRVMVSRSEIDLFNIRKEFRKNFATSLYSMIKGDTSGDYKKALLLLCGEDD",–,–,Staining of apoptotic cells after chelation of divalent cations [2]: failed to bind
